# According to patent US12295396B2, “Antagonists of T2R54 and compositions and uses thereof” (Firmenich Incorporated, priority 2018, dated 2025):
# Target: T1, hT2R54 (Homo sapiens, UniProt P59534)
# T1 construct: expressed in transfected cells; it overexpresses a promiscuous G protein
# T1 sequence (P59534 1-338): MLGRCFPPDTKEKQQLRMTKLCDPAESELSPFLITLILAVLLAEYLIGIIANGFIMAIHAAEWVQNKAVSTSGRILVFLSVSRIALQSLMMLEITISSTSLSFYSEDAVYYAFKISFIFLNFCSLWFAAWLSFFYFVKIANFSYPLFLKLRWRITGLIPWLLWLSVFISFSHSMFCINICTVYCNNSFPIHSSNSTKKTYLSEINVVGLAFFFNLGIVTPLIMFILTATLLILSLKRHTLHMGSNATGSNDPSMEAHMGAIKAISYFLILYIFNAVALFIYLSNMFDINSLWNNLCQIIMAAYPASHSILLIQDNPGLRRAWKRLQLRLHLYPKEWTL
# Assay: Cell-based assay for measuring hT2R54 inhibition (FLIPR calcium, Fluo4AM, acetaminophen as bitter agonist)
# Settings: Table 2; cells stably expressing hT2R54 and a promiscuous G protein; read-out: hT2R54 IC50
# Procedure, shortened: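 Cells stably co-expressing hT2R54 and a promiscuous G protein were loaded with Fluo4AM and given acetaminophen dose series, alone or with fixed concentrations of test compound. On FLIPR, baseline was recorded for 10 s and fluorescence for 3 min after addition. IC50 is the concentration halving the acetaminophen-alone response.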
row,SMILES,IC50
1,COCc1ccc(C(=O)N2CCN(CC(=O)Nc3cc4c(cc3C(C)=O)OCO4)CC2)cc1 [compound 282],38 nM
2,COCc1cccc(C(=O)N2CCN(CC(=O)Nc3cc4c(cc3C(C)=O)OCO4)CC2)n1 [compound 283],125 nM
3,CC(=O)c1cc2c(cc1NC(=O)CN1CCN(C(=O)c3csnn3)CC1)OCO2 [compound 284],30 nM
4,CC(=O)c1cc2c(cc1NC(=O)CN1CCN(C(=O)c3cscn3)CC1)OCO2 [compound 285],34 nM
5,CC(=O)c1cc2c(cc1NC(=O)CN1CCN(C(=O)c3cocn3)CC1)OCO2 [compound 286],108 nM
6,CC(=O)c1cc2c(cc1NC(=O)CN1CCN(C(=O)c3ccc(CO)o3)CC1)OCO2 [compound 287],230 nM
7,COCc1ccc(C(=O)N2CCN(CC(=O)Nc3cc4c(cc3C(C)=O)OCO4)CC2)o1 [compound 288],65 nM
8,COCc1ccc(C(=O)N2CCN(CC(=O)Nc3cc4c(cc3C(C)=O)OCO4)CC2)s1 [compound 289],21 nM
9,CC(=O)c1cc2c(cc1NC(=O)CN1CCN(C(=O)c3cc(C)c(C)o3)CC1)OCO2 [compound 290],10 nM
10,CCc1oc(C(=O)N2CCN(CC(=O)Nc3cc4c(cc3C(C)=O)OCO4)CC2)cc1COC [compound 291],49 nM
11,CC(=O)c1cc2c(cc1NC(=O)CN1CCN(C(=O)c3ccc(Cn4cccn4)o3)CC1)OCO2 [compound 292],6 nM
12,CC(=O)c1cc2c(cc1NC(=O)CN1CCN(C(=O)c3cc(C)no3)CC1)OCO2 [compound 293],8 nM
13,COCc1cc(C(=O)N2CCN(CC(=O)Nc3cc4c(cc3C(C)=O)OCO4)CC2)no1 [compound 294],70 nM
14,COCc1nc(C(=O)N2CCN(CC(=O)Nc3cc4c(cc3C(C)=O)OCO4)CC2)cs1 [compound 295],20 nM
15,COCc1nc(C(=O)N2CCN(CC(=O)Nc3cc4c(cc3C(C)=O)OCO4)CC2)co1 [compound 296],53 nM
16,CC(=O)c1cc2c(cc1NC(=O)CN1CCN(C(=O)c3coc(C)n3)CC1)OCO2 [compound 297],23 nM
17,CC(=O)c1cc2c(cc1NC(=O)CN1CCN(C(=O)c3conc3C)CC1)OCO2 [compound 298],91 nM
18,CC(=O)c1cc2c(cc1NC(=O)CN1CCN(C(=O)c3ncoc3C)CC1)OCO2 [compound 299],58 nM
19,CC(=O)c1cc2c(cc1NC(=O)CN1CCN(C(=O)c3cc(C)on3)CC1)OCO2 [compound 300],40 nM
20,CC(=O)c1cc2c(cc1NC(=O)CN1CCN(C(=O)c3ncc[nH]3)CC1)OCO2 [compound 301],20 nM
21,CC(=O)c1cc2c(cc1NC(=O)CN1CCN(C(=O)c3cn[nH]c3)CC1)OCO2 [compound 302],800 nM

row,SMILES,IC50
1,CC(=O)c1cc2c(cc1NC(=O)CN1CCN(C(=O)c3c[nH]nn3)CC1)OCO2 [compound 303],60 nM
2,CC(=O)c1cc2c(cc1NC(=O)CN1CCN(C(=O)c3ncn[nH]3)CC1)OCO2 [compound 304],80 nM
3,CC(=O)c1cc2c(cc1NC(=O)CN1CCN(C(=O)c3nccn3C)CC1)OCO2 [compound 305],31 nM
4,COc1cc2c(cc1NC(=O)CN1CCN(C(=O)c3nc(C)c[nH]3)CC1)OCO2 [compound 306],77 nM
5,CC(=O)c1cc2c(cc1NC(=O)CN1CCN(C(=O)c3n[nH]cc3C)CC1)OCO2 [compound 307],90 nM
6,CC(=O)c1cc2c(cc1NC(=O)CN1CCN(C(=O)c3nc(C)c[nH]3)CC1)OCO2 [compound 308],9 nM
7,CC(=O)c1cc2c(cc1NC(=O)CN1CCN(C(=O)c3c[nH]c(C)n3)CC1)OCO2 [compound 309],200 nM
8,CC(=O)c1cc2c(cc1NC(=O)CN1CCN(C(=S)Nc3ccccc3)CC1)OCO2 [compound 310],800 nM
9,COCC(=O)N1CCN(CC(=O)Nc2cc3c(cc2C(=O)OC)OCO3)CC1 [compound 311],82 nM
10,COCCC(=O)N1CCN(CC(=O)Nc2cc3c(cc2C(=O)OC)OCO3)CC1 [compound 312],157 nM
11,CC(=O)c1cc2c(cc1NC(=O)CN1CCN(C(=O)[C@H]3CCC(=O)O3)CC1)OCO2 [compound 313],60 nM
12,CC(=O)c1cc2c(cc1NC(=O)CN1CCN(C(=O)[C@@H]3CCCO3)CC1)OCO2 [compound 314],60 nM
13,CC(=O)c1cc2c(cc1NC(=O)CN1CCN(C(=O)[C@H]3CCCO3)CC1)OCO2 [compound 315],130 nM
14,CC(=O)c1cc2c(cc1NC(=O)C(C)N1CCN(C(=O)[C@@H]3CCCO3)CC1)OCO2 (stereo partly shown) [compound 316],80 nM
15,CC(=O)c1cc2c(cc1NC(=O)C(C)N1CCN(C(=O)[C@H]3CCCO3)CC1)OCO2 (stereo partly shown) [compound 317],200 nM
16,CC(=O)c1cc2c(cc1NC(=O)C(C)N1CCN(C(=O)C3CCCO3)CC1)OCO2 (stereo not shown) [compound 318],60 nM
17,CC(=O)c1cc2c(cc1NC(=O)C(C)(C)N1CCN(C(=O)C3CCCO3)CC1)OCO2 (stereo not shown) [compound 319],1000 nM
18,COCC(C(=O)Nc1cc2c(cc1C(C)=O)OCO2)N1CCN(C(=O)[C@H]2CCCO2)CC1 (stereo partly shown) [compound 320],1600 nM
19,CC(=O)c1cc2c(cc1NC(=O)CN1CCN(C(=O)C3CCN(C)C3)CC1)OCO2 (stereo not shown) [compound 321],1000 nM
20,CC(=O)c1cc2c(cc1NC(=O)CN1CCN(C(=O)CC3CCCO3)CC1)OCO2 (stereo not shown) [compound 322],70 nM

# Same assay, conditions: Table 8; read-out: hT2R54 IC50
row,SMILES,IC50
1,CC(=O)c1cc2c(cc1NC(=O)CC1CCN(C(=O)Cc3ccccc3)CC1)OCO2 [compound 247],490 nM
2,CC(=O)c1cc2c(cc1NC(=O)CC1CCN(C(=O)Cc3ccccc3F)CC1)OCO2 [compound 248],420 nM
3,CC(=O)c1cc2c(cc1NC(=O)CC1CCN(C(=O)Cc3cccc(F)c3)CC1)OCO2 [compound 249],2540 nM
4,CC(=O)c1cc2c(cc1NC(=O)CC1CCN(C(=O)Cc3cccnc3)CC1)OCO2 [compound 250],760 nM
5,CC(=O)c1cc2c(cc1NC(=O)CC1CCN(C(=O)Cc3ccncc3)CC1)OCO2 [compound 251],580 nM
6,CC(=O)c1cc2c(cc1NC(=O)CC1CCN(C(=O)Cc3ccccc3O)CC1)OCO2 [compound 252],1090 nM
7,CC(=O)c1cc2c(cc1NC(=O)CC1CCN(C(=O)Cc3cccc(O)c3)CC1)OCO2 [compound 253],750 nM
8,CC(=O)c1cc2c(cc1NC(=O)CC1CCN(C(=O)Cc3ccc(O)cc3)CC1)OCO2 [compound 254],320 nM
9,COc1ccccc1CC(=O)N1CCC(CC(=O)Nc2cc3c(cc2C(C)=O)OCO3)CC1 [compound 255],1300 nM
10,COc1cccc(CC(=O)N2CCC(CC(=O)Nc3cc4c(cc3C(C)=O)OCO4)CC2)c1 [compound 256],380 nM
11,COc1ccc(CC(=O)N2CCC(CC(=O)Nc3cc4c(cc3C(C)=O)OCO4)CC2)cc1 [compound 257],1570 nM
12,CC(=O)c1cc2c(cc1NC(=O)CC1CCN(C(C)=O)C1)OCO2 (stereo not shown) [compound 258],928 nM
13,CCC(=O)N1CCC(CC(=O)Nc2cc3c(cc2C(C)=O)OCO3)C1 (stereo not shown) [compound 259],2600 nM
14,CCCC(=O)N1CCC(CC(=O)Nc2cc3c(cc2C(C)=O)OCO3)C1 (stereo not shown) [compound 260],844 nM
15,CC(=O)c1cc2c(cc1NC(=O)CC1CCN(C(=O)C(C)C)C1)OCO2 (stereo not shown) [compound 261],958 nM
16,CC(=O)c1cc2c(cc1NC(=O)CC1CCN(C(=O)C(C)(C)C)C1)OCO2 (stereo not shown) [compound 262],290 nM
17,CC(=O)c1cc2c(cc1NC(=O)CC1CCN(C(=O)CC(C)C)C1)OCO2 (stereo not shown) [compound 263],374 nM
18,CC(=O)c1cc2c(cc1NC(=O)CC1CCN(C(=O)CC(C)(C)C)C1)OCO2 (stereo not shown) [compound 264],381 nM
19,CC(=O)c1cc2c(cc1NC(=O)CC1CCN(C(=O)C3CC3)C1)OCO2 (stereo not shown) [compound 265],682 nM
20,CC(=O)c1cc2c(cc1NC(=O)CC1CCN(C(=O)C3CCCC3)C1)OCO2 (stereo not shown) [compound 266],506 nM
21,CC(=O)c1cc2c(cc1NC(=O)CC1CCN(C(=O)C3CCCCC3)C1)OCO2 (stereo not shown) [compound 267],2250 nM
22,CCOC(=O)N1CCC(CC(=O)Nc2cc3c(cc2C(C)=O)OCO3)C1 (stereo not shown) [compound 268],117 nM
23,CCCOC(=O)N1CCC(CC(=O)Nc2cc3c(cc2C(C)=O)OCO3)C1 (stereo not shown) [compound 269],103 nM

# Same assay, conditions: Table 9; read-out: hT2R54 IC50
row,SMILES,IC50
1,"CC(=O)c1cc2c(cc1NC(=O)CC1CCOCC1)OCO2 [compound 270, N-(6-Acetylbenzo[d][1,3]dioxol-5-yl)-2-(tetrahydro-2H-pyran-4-yl)acetamide]",561 nM
2,CC(=O)c1cc2c(cc1NC(=O)CC1CCCCO1)OCO2 (stereo not shown) [compound 271],152 nM
3,CC(=O)c1cc2c(cc1NC(=O)CC1CCOC1)OCO2 (stereo not shown) [compound 272],1390 nM
4,CC(=O)c1cc2c(cc1NC(=O)Cc1cccnc1)OCO2 [compound 273],454 nM
5,CC(=O)c1cc2c(cc1NC(=O)Cc1ccc(O)cc1)OCO2 [compound 274],554 nM
6,CC(=O)c1cc2c(cc1NC(=O)Cc1ccsc1)OCO2 [compound 275],704 nM
7,COc1ccccc1CC(=O)Nc1cc2c(cc1C(C)=O)OCO2 [compound 276],804 nM
8,CC(=O)c1cc2c(cc1NC(=O)Cc1ccccc1C)OCO2 [compound 277],740 nM
9,CC(=O)c1cc2c(cc1NC(=O)CCc1ccccc1)OCO2 [compound 278],1220 nM
10,COc1ccc(OC)c(CC(=O)Nc2cc3c(cc2C(C)=O)OCO3)c1 [compound 279],1470 nM
11,CC(=O)c1cc2c(cc1NC(=O)Cc1c(C)nn(C)c1C)OCO2 [compound 280],1720 nM
12,COc1cccc(CC(=O)Nc2cc3c(cc2C(C)=O)OCO3)c1 [compound 281],1810 nM
